Data on one compound can be found in US7741023B2, “Method for predicting immune response to neoplastic disease based on mRNA expression profile in neoplastic cells and stimulated leukocytes” (Hitachi Chemical Co., Ltd., priority 2005, dated 2010).

The experiment relates to TNF superfamily subtype 3 mRNA. Briefly: effect of dietary components on HAG-induced TNF superfamily subtype 3 mRNA in whole blood. In kind it is cell-based, human. To be noted: 100 nM, pre-incubation 37° C. 1 hour, then HAG; one individual, FIG. 10. The method, then: Triplicate aliquots of 50 μL each of heparinized whole blood was incubated with 200 μg/mL HAG at 37° C. for 2 hours. Then blood samples were applied to 96-well filterplates to trap leukocytes, and cell lysates were transferred to 96-well oligo(dT)-immobilized microplates for isolation of poly(A)^+ mRNA as described above. cDNA was synthesized on the microplates and was used for real-time polymerase chain reaction (PCR) in 384-well plates by monitoring SYBR Green fluorescence (see Morrison et al., Quantification of low-copy transcripts by continuous SYBR Green I monitoring during amplification. Biotechniques 1998; 24:954-8, 960, 96). […] The Ct was determined by analytical software (SDS, ABI). The PCR conditions were carefully optimized, so that a single appropriate peak was detected on melting curve analysis without any primer dimers. To validate the assay conditions, synthetic RNA34 was spiked into the lysis buffer, and this RNA34 was also quantitated by real time PCR. […] The Ct was set equal to the PCR cycle where certain amounts of PCR products were generated, and delta Ct (ΔCt) was also calculated by subtracting the Ct values of the un-stimulated samples from those of the stimulated samples. Since Ct is a log scale, 1 ΔCt means double or one half in quantity, and a negative ΔCt indicates an increase in expression. […]

For the compound `O=c1c(O)c(-c2ccc(O)c(O)c2)oc2cc(O)cc(O)c12` [quercetin], the “HAG-induced TNF superfamily subtype 3 expression in blood pre-exposed to dietary component” value was “significant (p=0.03) induction”.
